Structures are written as SMILES.

In assay [1] the test system is platelet aggregation induced by PAF. Kind of assay: Inhibition of platelet aggregation induced by PAF (rabbit platelet rich plasma, Born nephelometric technique). It counts as cell-based, New Zealand albino rabbits. The conditions noted are these: Oryctolagus cuniculus, concentration needed to inhibit platelet aggregation by 50%, PAF (C₁₈) 16 nM final, read-out: IC₅₀. How it is done: Inhibition of platelet aggregation induced by PAF.
The blood is obtained by cardiac puncture of male New Zealand albino rabbits (between 2 and 2.5 Kg of weight) and coagulation is prevented by adding 1 part of 3.16% sodium citrate dihydrate in 9 parts of blood. The platelet rich plasma (PRP) is prepared by blood centrifugation at 250xg for 10 min. at 4°C and it is diluted with platelet poor plasma (PPP) by additional centrifugation at 3000xg for 10 min. The amount of platelets is adjusted to […]. The platelet aggregation induced by PAF (C₁₈; prepared in our laboratory) (16 nM, final) is determined by the Born nephelometric technique (J. Physiol., 1962, 162, 67) using a aggregometer Chrono-log 500. The activities of the inhibitors are expressed as IC₅₀, that is to say the concentration of the drug needed to inhibit the platelet aggregation by 50%.

For assay [2], the system named is hypotension induced by PAF. Description: Inhibition of the hypotensive effect induced by PAF in normotense rats. It counts as in vivo, Sprage Dawley rats. Conditions: anesthetized male rats; compound given through the femoral vein 3 min before PAF (0.5 mcg/Kg, i.v.); average arterial pressure. How it is done: Inhibition of the hypotensive effect induced by PAF in normotense rats.
Male Sprage Dawley rats, of 180-220 g of weight, anesthetized with sodium pentobarbital (50 mg/Kg, i.p. 1 mL/100 g) have been used. In order to measure the average arterial pressure, a polyethylene catheter is introduced into the carotid artery. The arterial pressure is recorded with the help of a transducer connected with a R611 Beckman polygraph. The tested compounds are administered through the femoral vein 3 min before the injection of PAF (0.5 mcg/Kg, i.v.).

As to `CCCCCCCCCCCCCCCCCCOCC1OCC(COC(=O)N(Cc2cccc[n+]2C)C(C)=O)O1.[I-]` (stereo not drawn) [Compound 10, 2-(N-Acetyl-N-(((2-octadecyloxymethyl-1,3-dioxolan-4-yl)methoxy)carbonyl)aminomethyl)-1-methylpyridinium iodide], the IC50 in assay [1] amounted to 1200 nM. Also, in assay [2], the CI₅₀ is listed as 0.35 mg/Kg,i.v.
For `CCCCCCCCCCCCCCCNC(=O)OCC1OCC(COC(=O)N(Cc2cccc[n+]2CC)C(C)=O)O1.[I-]` (stereo not drawn) [Compound 14, 2(N-Acetyl-N-(((2-pentadecylcarbamoyloxymethyl-1,3-dioxolan-4-yl)methoxy)carbonyl)aminomethyl)-1-ethylpyridinium iodide], in that order: below 100 nM and <0.1 mg/Kg,i.v.
Turning to `CCCCCCCCCCCCCCCCCC1OCC(COC(=O)N(Cc2cccc[n+]2C)C(C)=O)O1.[I-]` (stereo not drawn) [Compound 3, 2-(N-Acetyl-N-(((2-heptadecyl-1,3-dioxolane-4-yl)methoxy)carbonyl)aminomethyl)-1-methylpyridinium iodide], in assay [1], the IC50 amounted to 2200 nM. Also, the CI₅₀ in assay [2] is on record as 0.9 mg/Kg,i.v.
Regarding `CCCCCCCCCCCCCCCCCCOCC1OCC(COC(=O)N(Cc2cccc[n+]2CC)C(C)=O)O1.[I-]` (stereo not drawn) [Compound 11, 2(N-Acetyl-N-(((2-octadecyloxymethyl-1,3-dioxolan-4-yl)methoxy)carbonyl)aminomethyl)-1-ethylpyridinium iodide], in assay [1], the IC50 came out at 160 nM. Also, the CI₅₀ in assay [2] was <0.1 mg/Kg,i.v.
Consider `CCCCCCCCCCCCCCCCOCC1OCC(COC(=O)N(Cc2cccc[n+]2CC)C(C)=O)O1.[I-]` (stereo not drawn) [Compound 7, 2-(N-Acetyl-N-(((2-hexadecyloxymethyl-1,3-dioxolan-4-yl)methoxy)carbonyl)aminomethyl)-1-ethylpyridinium iodide], for which the IC50 in assay [1] was below 100 nM. Moreover, the CI₅₀ in assay [2] is <0.1 mg/Kg,i.v.
Turning to `CCCCCCCCCCCCCCCCCC1OCC(COC(=O)N(Cc2cccc[n+]2CC)C(C)=O)O1.[I-]` (stereo not drawn) [Compound 4, 2-(N-acetyl-N-(((2-heptadecyl-1,3-dioxolane-4-yl)methoxy)carbonyl)aminomethyl)-1-ethylpyridinium iodide], the IC50 in assay [1] was 210 nM. Moreover, the CI₅₀ in assay [2] is 0.2 mg/Kg,i.v.

Source of the values: patent publication EP0388950A2, “New 1,3-dioxolan-4-yl derivatives of 2-picolylamine” (J. URIACH & CIA. S.A., priority 1989, dated 1990).
